From publication PMC3845967 (ACS medicinal chemistry letters, 2013)

Tests used:
[1] = tested on: mouse embryonic fibroblasts (MEFs); experiment: MTT toxicity assay, mouse embryonic fibroblasts; type: cell-based; settings: for EC50: Mus musculus, Fibroblast
[2] = tested on: fibroblasts or normal epithelial cells; settings: cited from earlier work
[3] = tested on: MDA-MB-231 and MCF7 breast cancer cells; type: cell-based; settings: for EC50: 72 h, read-out: EC50 (span over series and cell lines); for effect of substitution on activity compared to MKT-077: either cell line (MDA-MB-231, MCF7)
MCF7 breast cancer cells = experiment: MTT anti-proliferative assay, MCF7 cells; type: cell-based
[4] = tested on: MDA-MB-231 breast cancer cells; experiment: MTT anti-proliferative assay, MDA-MB-231 cells; type: cell-based
[5] = tested on: MDA-MB-231 and MCF7 cells; experiment: p62 oligomerization / autophagic flux; type: cell-based; settings: 24 h
MDA-MB-231 cells = experiment: Cleavage of caspase-3 and PARP; type: cell-based; settings: 48 h
human Hsc70 = human Hsc70 (Homo sapiens, UniProt P11142); experiment: ELISA binding of biotinylated analogs to immobilized Hsc70
human Hsc70, sequence (P11142 whole entry): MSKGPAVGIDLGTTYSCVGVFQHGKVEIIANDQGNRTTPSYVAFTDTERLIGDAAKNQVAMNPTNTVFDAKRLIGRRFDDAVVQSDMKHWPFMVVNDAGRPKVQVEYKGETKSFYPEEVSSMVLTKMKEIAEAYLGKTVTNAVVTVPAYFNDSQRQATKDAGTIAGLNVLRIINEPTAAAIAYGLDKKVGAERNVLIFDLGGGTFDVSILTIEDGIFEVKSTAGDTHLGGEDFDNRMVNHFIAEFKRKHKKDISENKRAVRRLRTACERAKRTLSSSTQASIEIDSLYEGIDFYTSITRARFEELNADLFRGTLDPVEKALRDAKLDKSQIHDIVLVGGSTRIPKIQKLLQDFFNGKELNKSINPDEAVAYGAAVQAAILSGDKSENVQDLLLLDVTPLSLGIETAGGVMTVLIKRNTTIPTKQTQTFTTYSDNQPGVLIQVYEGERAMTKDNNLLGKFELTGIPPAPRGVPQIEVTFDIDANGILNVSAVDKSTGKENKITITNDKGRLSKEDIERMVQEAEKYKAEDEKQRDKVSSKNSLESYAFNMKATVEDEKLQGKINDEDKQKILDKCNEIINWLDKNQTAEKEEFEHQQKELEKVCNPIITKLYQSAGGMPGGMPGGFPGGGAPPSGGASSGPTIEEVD

For CCn1c(=O)/c(=C2\Sc3ccccc3N2C)s/c1=C\c1cccc[n+]1CC.[Cl-] [MKT-077, reference compound], the EC50 [1] is given as over 50 µM and the “toxicity to fibroblasts or normal epithelial cells” value [2] is given as “not toxic”.

In the case of CCn1c(=O)/c(=C2\Sc3ccccc3N2C)s/c1=C\c1cccc[n+]1C.[Cl-] [YM-01, reference compound], the EC50 [1] is listed as over 50 µM and the “toxicity to fibroblasts or normal epithelial cells” value [2] is listed as “not toxic”.

CCn1c(=O)/c(=C2\Sc3cccc(F)c3N2C)s/c1=C\c1cccc[n+]1C [compound 1] showed an EC50 [3] of 2.2 to 18 µM.

Compound CCn1c(=O)/c(=C2\Sc3ccc(F)cc3N2C)s/c1=C\c1cccc[n+]1C [compound 2] has an EC50 [3] of 2.2 to 18 µM.

With CCn1c(=O)/c(=C2\Sc3cc(F)ccc3N2C)s/c1=C\c1cccc[n+]1C [compound 3] the EC50 [3] was 2.2 to 18 µM.

Work on CCn1c(=O)/c(=C2\Sc3c(F)cccc3N2C)s/c1=C\c1cccc[n+]1C [compound 4] yielded an EC50 [3] of 2.2 to 18 µM.

CCn1c(=O)/c(=C2\Sc3cccc(F)c3N2C)s/c1=C\c1cccc[n+]1CC [compound 5] showed an EC50 [3] of 0.8 to 13 µM.

Compound CCn1c(=O)/c(=C2\Sc3ccc(F)cc3N2C)s/c1=C\c1cccc[n+]1CC [compound 6] has an EC50 [3] of 0.8 to 13 µM.

In the case of CCn1c(=O)/c(=C2\Sc3cc(F)ccc3N2C)s/c1=C\c1cccc[n+]1CC [compound 7], the EC50 [3] is reported as 0.8 to 13 µM.

With CCn1c(=O)/c(=C2\Sc3c(F)cccc3N2C)s/c1=C\c1cccc[n+]1CC [compound 8] the EC50 [3] was 0.8 to 13 µM.

Work on CCn1c(=O)/c(=C2\Sc3cccc(Cl)c3N2C)s/c1=C\c1cccc[n+]1C [compound 9] yielded an EC50 [3] of 4.1 to 28 µM.

Compound CCn1c(=O)/c(=C2\Sc3ccc(Cl)cc3N2C)s/c1=C\c1cccc[n+]1C [compound 10] has an EC50 [3] of 4.1 to 28 µM.

In the case of CCn1c(=O)/c(=C2\Sc3cc(Cl)ccc3N2C)s/c1=C\c1cccc[n+]1C [compound 11], the EC50 [3] is reported as 4.1 to 28 µM.

CCn1c(=O)/c(=C2\Sc3c(Cl)cccc3N2C)s/c1=C\c1cccc[n+]1C [compound 12] gave an EC50 [3] of 4.1 to 28 µM.

Work on CCn1c(=O)/c(=C2\Sc3ccc(OC)cc3N2C)s/c1=C\c1cccc[n+]1C [compound 13] yielded an EC50 [3] of 3 to 30 µM.

CCn1c(=O)/c(=C2\Sc3cc(OC)ccc3N2C)s/c1=C\c1cccc[n+]1C [compound 14] gave an EC50 [3] of 3 to 30 µM.

Work on CCn1c(=O)/c(=C2\Sc3ccc(C(F)(F)F)cc3N2C)s/c1=C\c1cccc[n+]1C [compound 15] yielded an EC50 [3] of 3 to 30 µM.

Work on CCn1c(=O)/c(=C2\Sc3cc(C(F)(F)F)ccc3N2C)s/c1=C\c1cccc[n+]1C [compound 16] yielded an EC50 [3] of 3 to 30 µM.

For C=CCn1c(=O)/c(=C2\Sc3ccccc3N2C)s/c1=C\c1cccc[n+]1C.[Cl-] [compound 17], the “effect of substitution on activity compared to MKT-077” value [3] was “did not substantially affect activity”.

In the case of CN1/C(=c2\s/c(=C\c3cccc[n+]3C)n(Cc3ccccc3)c2=O)Sc2ccccc21.[Cl-] [compound 18], the “effect of substitution on activity compared to MKT-077” value [3] is reported as “did not substantially affect activity”.

For CCn1c(=O)/c(=C2\Sc3ccccc3N2C)s/c1=C\c1cccc[n+]1Cc1ccccc1.[Cl-] [compound 20], the “fold improvement in activity compared to MKT-077” value ([3]; MDA-MB-231 and MCF7 cells) was “approximately 2 fold”.

In the case of CCn1c(=O)/c(=C2\Sc3ccccc3N2C)s/c1=C\c1nccc[n+]1C.[Cl-] [compound 23], the “fold reduction in potency” value ([3]; compared to MKT-077) is reported as “approximately 2 fold”.

For CCn1c(=O)/c(=C2\Sc3ccccc3N2C)s/c1=C\c1scc[n+]1C.[Cl-] [compound 24], the “fold improvement in potency compared to MKT-077” value (“fold improvement in potency” for short) (MCF7 breast cancer cells) was 3 fold.

In the case of CCn1c(=O)/c(=C2\Sc3ccccc3N2C)s/c1=C\c1scc[n+]1Cc1ccccc1.[Cl-] [compound 26], the “fold improvement in potency” value (MCF7 breast cancer cells) is reported as 4 fold and the “fold improvement in potency” value [4] is reported as 2 fold.

In the case of CCn1c(=O)/c(=C2\Sc3cccc(F)c3N2C)s/c1=C\c1scc[n+]1Cc1ccccc1.[Cl-] [compound 27], the “activity against MEFs compared to MKT-077” value [1] is reported as “increased activity against MEFs”, the “fold improvement in potency” value (MCF7 breast cancer cells) is reported as 2 fold and the “fold improvement in potency” value [4] is reported as “more than 3 fold”.

In the case of CCn1c(=O)/c(=C2\Sc3cc(Cl)ccc3N2C)s/c1=C\c1scc[n+]1Cc1ccccc1.[Cl-] [compound 30], the “activity against MEFs compared to MKT-077” value [1] is reported as “increased activity against MEFs”, the “autophagic flux (p62 oligomerization, p62 monomer)” value [5] is reported as “strongly affected autophagic flux” and the “cleavage of caspase-3 and PARP” value (MDA-MB-231 cells) is reported as “activated”.

With CCn1c(=O)/c(=C2\Sc3cccc(F)c3N2C)s/c1=C\c1scc[n+]1Cc1ccc(CNC(=O)CCCC[C@@H]2SC[C@@H]3NC(=O)N[C@@H]32)cc1 [compound 32] the Kd (human Hsc70) was 2.4 ± 0.4 µM.

With CCn1c(=O)/c(=C2\Sc3cccc(F)c3N2C)s/c1=C\c1cccc[n+]1CCCCCCNC(=O)CCCC[C@@H]1SC[C@@H]2NC(=O)N[C@@H]21 [compound 34] the Kd (human Hsc70) was 10.9 ± 4.4 µM.

CCn1c(=O)/c(=C2\Sc3cccc(Cl)c3N2C)s/c1=C\c1cccc[n+]1CCCCCCNC(=O)CCCC[C@@H]1SC[C@@H]2NC(=O)N[C@@H]21 [compound 38] gave a Kd (human Hsc70) of 7.7 ± 1 µM.
